{"source": "patent US9176153B2", "about": "“Prevention therapy and prognosis/monitoring in sepsis and septic shock” (NEDERLANDSE ORGANISATIE VOOR […] ONDERZOEK TNO, priority 2002, dated 2015)", "molecules": {"B1": {"name": "APDLSGTLESIPDKLKEFGNTLEDKARAAIEHIKQKEILTKTRAWFSEAFGKVKEKLKTTFS (protein)", "chain": "APDLSGTLESIPDKLKEFGNTLEDKARAAIEHIKQKEILTKTRAWFSEAFGKVKEKLKTTFS", "modifications": "Muss p.; SITE (1)..(62) primary amino acid sequence of apoCI", "notes": "endogenous mouse apolipoprotein CI in murine plasma"}}, "key": {"LPS Re595": {"system": "LPS Re595", "assay": "liver uptake and serum residence of 125I-LPS after intravenous injection in mice", "type": "in vivo, Wild-type (C57B1/6) mice", "conditions": "for effect on behavior of 125I-LPS after intravenous injection (liver uptake, residence in blood): 125I-LPS Re595 10 μg/kg, LPS:apoCI 1:0.2 to 1:16, LPS:albumin 1:16", "method": "Wild-type (C57B1/6) mice were anesthetized and, via the lower vena cava, injected intravenously with radioactively (^125I) labeled LPS Re595 (10 μg/kg) without, and with, respectively, apoCI (molar ratio LPS:apoCI=1:0.2, 1:0.5, 1:1 and 1:16) and bovine serum albumin (molar ratio LPS:albumin=1:16). Blood samples and bits of liver tissue were taken at t=2, 5, 10, 20 and 30 minutes after injection. After this, the mice were sacrificed. Next, the amounts of LPS in the blood sera and liver samples were quantified on the basis of the amount of radioactive radiation. Also, a serum sample was taken 30 minutes after injection of LPS:apoCI (1:1) and subjected to agarose gel electrophoresis to study the distribution of the ^125I-LPS over the various lipoproteins. Lipoprotein lipids were visualized with the aid of Sudan Black, and ^125I-LPS by means of autoradiography. In FIGS. 6A and 6B the amounts of ^125I-LPS in the liver and the blood serum, respectively, are plotted as a percentage of the injected dose against time (n=3.+−.SEM). […] Already at a molar ratio of 1:1, the uptake of LPS by the liver was reduced 8-fold. The strong binding of apoCI to LPS (see Example 2) therefore proves to be relevant in the blood too."}, "LPS": {"system": "LPS", "assay": "LPS-induced inhibition of apolipoprotein-specific sandwich ELISA", "type": "binding", "method": "The apoCI level in blood plasma can be established in any suitable manner. Preferably, the apoCI level is determined with a sandwich Enzyme-Linked ImmunoSorbent Assay (sandwich ELISA). To this end, for instance 96-wells plates (medium-binding plates; Costar) are coated with a (10,000-fold dilution of a) polyclonal antibody to human apoCI generated in goat (goat-anti human apoCI; Academy Bio-Medical Company, Houston, USA; cat. 31A-Glb). Next, human blood plasma or serum is added (100,000-300,000-fold dilution), whereby the apoCI present therein is quantitatively bound by this primary antibody. […] The HRP is subsequently quantified by means of a stain reaction with 3,3′,5,5′-tetramethylbenzidine (TMB) as substrate, and the stain intensity is compared with a calibration curve which is constructed with pure human apoCI (Labconsult, Brussels, Belgium; cat. A50366H).\nA particular amount of human apoCI (0.75 ng/mL) was incubated with LPS in increasing molar ratios, after which the apoCI concentration was determined with the aid of the human apoCI-specific sandwich ELISA as described above under F. The LPS-induced inhibition of the stain reaction from which the apoCI concentration is read, was determined as a percentage of the maximum staining in the absence of LPS (n=2.+−.SEM) (FIG. 3). […]"}, "FITC-LPS Re595 [1]": {"system": "FITC-LPS Re595", "assay": "monomerization of FITC-LPS by murine plasma with different apoCI levels", "type": "biochemical, mouse", "method": "We have determined the effect of the apoCI level in murine plasma on monomerization of FITC-LPS as described in Example 2. For that purpose, FITC-LPS was incubated with plasma that had been isolated from wild-type mice, genetically modified mice which are deficient for apoCI (apocl^−/−), or genetically modified mice which express the human apoCI hemizygote (APOC1^+/0) or homozygote (APOC1^+/+).\nFITC-LPS Re595 (100 ng) was incubated with plasma (0.125%) isolated from the blood of the various mouse types, after which the occurrence of fluorescence was followed in time with the aid of a fluorimeter. The expression of human apoCI in mouse plasma led to an apoCI-dose dependent increase of the FITC-LPS monomerization, which was 32% at a maximum. […] This indicates not only that mouse-apoCI, like human apoCI, is capable of monomerizing LPS, but especially also that the endogenous presence of apoCI contributes for a considerable part to the total LPS-disaggregated capacity of mouse plasma."}, "FITC-LPS Re595 [2]": {"system": "FITC-LPS Re595", "assay": "monomerization of FITC-LPS by pure apolipoprotein (fluorescence dequenching)", "type": "biochemical", "conditions": "FITC-LPS Re595 100 ng, molar ratios 1:1, 1:5, 1:10 and 1:20", "method": "Finally, the effect of apoCI on the monomerization rate of LPS was studied. […] FITC-LPS Re595 (100 ng) was incubated with pure human apoCI (in molar ratios 1:1, 1:5, 1:10 and 1:20), after which the occurrence of fluorescence was followed in time with the aid of a fluorimeter."}, "[3]": {"system": "LPS Re595 (Salmonella minnesota)", "assay": "agarose gel electrophoresis of 125I-LPS incubated with human apoCI", "type": "binding", "method": "LPS Re595 (Salmonella minnesota) was radioactively labeled with ^125I as described (Rensen, 1997) and incubated (30 min at 37° C.) with increasing amounts of human apoCI which has been isolated from human blood (Tournier, 1984). Next, the incubation volumes were transferred to an agarose gel (position Rf 0), after which, for 2 hours, an electrophoretic field was applied (so-called agarose gel electrophoresis). After electrophoresis, the ^125I-LPS was visualized by means of autoradiography. Through its negative charge, LPS tends to migrate to the positive pole (anode); which, however, is prevented in that the LPS forms large micellary structures that cannot pass the relatively small pores formed by the agarose matrix.\nAlso, the effect of increasing amounts of LPS on the migration of a fixed amount of apoCI was determined. For that purpose, the apoCI was visualized in the gel after electrophoresis by means of immunoblotting with a horseradish peroxidase-conjugated antibody directed against human apoCI (Academy Bio-Medical Company, Houston, USA; cat. 31H-G1b)."}, "TNFα": {"system": "TNFα", "assay": "LPS-induced TNFα response in mice", "type": "in vivo, Wild-type (C57B1/6) mice", "method": "Wild-type (C57B1/6) mice were injected, by way of the tail vein, with LPS Re595 (25 μg/kg) without, and with, apoCI (molar ratio LPS:apoCI=1:5). Blood samples were taken at t=0, 30, 60, 90, 120 and 180 minutes after injection. In the samples, subsequently, the amount of TNFα was quantified with the aid of a mouse-TNFα specific ELISA according to the accompanying instructions (Immunosource, Halle, Belgium, cat. no. BMS607MST), and the amounts of TNFα in the blood plasma were subsequently plotted against time."}}, "note": "“Also recorded” adds a separate entry of the source.", "data": [{"molecule": "Bovine serum albumin: bovine serum albumin used as control protein [reference compound]", "values": [{"measurement": "effect on behavior of 125I-LPS after intravenous injection (liver uptake, residence in blood)", "setting": "LPS Re595", "result": "not effective"}]}, {"molecule": "TPDVSSALDKLKEFGNTLEDKARELISRIKQSELSAKMREWFSETFQKVKEKLKIDS (human apoCI peptide) [human apolipoprotein CI, 57 amino acids, 6.6 kDa, purified from human blood]", "values": [{"measurement": "effect on behavior of 125I-LPS after intravenous injection (liver uptake, residence in blood)", "setting": "LPS Re595", "result": "inhibit the decrease of LPS from the blood strongly and dose-dependently; also recorded: strongly reducing the uptake of LPS by the liver"}, {"measurement": "reduction of uptake of LPS by the liver", "setting": "LPS Re595; molar ratio LPS:apoCI 1:1, 125I-LPS Re595 10 μg/kg intravenously", "result": 8, "unit": "fold"}, {"measurement": "LPS-induced inhibition of the staining reaction of apoCI-specific sandwich ELISA", "setting": "LPS; 200-fold molar excess of LPS to apoCI, apoCI 0.75 ng/mL, percentage of maximum staining in absence of LPS", "result": "more than 40%"}, {"measurement": "increase of the FITC-LPS monomerization by expression of human apoCI in mouse plasma", "setting": "FITC-LPS Re595 [1]; plasma 0.125% of APOC1+/0 or APOC1+/+ mice versus wild-type, maximum", "result": 32, "unit": "%"}, {"measurement": "increase in FITC fluorescence (monomerization of LPS)", "setting": "FITC-LPS Re595 [2]", "result": "dose-dependent monomerization of LPS micelles"}, {"measurement": "increase in FITC fluorescence (monomerization of LPS)", "setting": "FITC-LPS Re595 [2]; listed as ApoCI", "result": "increase strongly in a dose-dependent manner"}, {"measurement": "migration of 125I-LPS in agarose gel", "setting": "[3]; 0.5 molecules of apoCI with respect to 1 molecule of LPS, incubated 30 min at 37° C., 2 hours electrophoresis", "result": "complete migration of the LPS to the positive pole"}, {"measurement": "migration of apoCI in agarose gel on binding of LPS", "setting": "[3]; fixed amount of apoCI, increasing amounts of LPS, immunoblotting", "result": "accelerated migration of apoCI to the positive pole"}, {"measurement": "increase of the LPS-induced TNF level versus LPS alone", "setting": "TNFα; LPS Re595 25 μg/kg with apoCI, molar ratio 1:5", "result": "fourfold"}, {"measurement": "LPS-induced TNF level in blood plasma", "setting": "TNFα; LPS Re595 25 μg/kg with apoCI, molar ratio LPS:apoCI 1:5, tail vein, versus 2.8 for LPS alone", "result": 10.8, "unit": "ng/mL"}, {"measurement": "TNFα induction by apoCI without LPS", "setting": "TNFα; equal amount of apoCI without LPS", "result": "no TNFα inducing effect"}]}, {"molecule": "apoCIII: apolipoprotein CIII, 79 amino acids, two amphipatic helices, comparable size and structure to apoCI [reference compound]", "values": [{"measurement": "effect of LPS on quantification with apoCIII-specific sandwich ELISA", "setting": "LPS; comparable apoCIII-specific sandwich ELISA", "result": "no effect"}, {"measurement": "increase in FITC fluorescence (monomerization of LPS)", "setting": "FITC-LPS Re595 [2]", "result": "hardly effective"}]}, {"molecule": "B1", "values": [{"measurement": "reduction of monomerization of FITC-LPS owing to absence of mouse-apoCI", "setting": "FITC-LPS Re595 [1]; plasma 0.125% of apoc1-/- mice versus wild-type", "result": 60, "unit": "%"}]}]}
